# Measurements from patent US10822338B2, “Substituted aminoquinazoline compounds as A2A antagonist” (Merck Sharp & Dohme Corp., priority 2015, dated 2020).
# Target: human A2A receptor (Homo sapiens (Human), UniProt P29274)
# Assay: A2A competition binding assay using Scintillation Proximity technology
# Conditions: 0.5 nM tritiated radioligand, Cheng-Prusoff
# Protocol: Binding affinities of compounds of the invention for the human A2A receptor were determined in a competition binding assay using Scintillation Proximity technology. Thus, 1^μg (^ denotes 1 μg of membrane/well), or preferably 0.25 μg of membranes from HEK293 cells expressing the human A2a receptor were incubated with a compound of the invention at concentrations ranging from 3000 nM to 0.15 nM in a reaction mixture containing also 0.5 nM of a tritiated form of 5-amino-7-[2-phenethyl]-2-(furan-2-yl)-7H-pyrazolo[4,3-e][1,2,4]triazolo[1,5-c]pyrimidine (the tritiated compound) and 25 μg of wheat germ agglutin-coated yttrium silicate SPA beads for one hour at room temperature with agitation. The beads were then allowed to settle to the bottom of the wells for 1 hr, after which the membrane-associated radioactivity was determined by scintillation counting in a TopCount microplate reader. Ki values were determined using the Cheng-Prusoff equation.
# HEK293 cells expressing the human, rat, dog or monkey adenosine 2a receptor (Purchased from Perkin-Elmer # RBHA2AM400UA).
# The Tritiated compound was prepared in-house by MRL Radiochemistry according to published methods.
# Wheat germ agglutinin-coated yttrium silicate SPA beads (GE Healthcare #RPNQ0023). Dilute to 25 mg/mL in assay buffer.
# Assay Buffer was prepared in house: Dulbecco's calcium and magnesium free phosphate buffered saline+10 mM MgCl2
# Adenosine deaminase from calf intestine, 10 mg/2 mL (Roche #10 102 105 001).
# A2A antagonist standard (9-chloro-1-(2-furanyl)-[1,2,4]triazolo[1,5-c]quinazolin-5-amine from Tocris Bioscience)
# Make eight 1:3 serial dilutions in 100% DMSO from a 3 mM compound stock
# Transfer 50 nL of compound into a 384-well OptiPlate (Perkin Elmer).
# Typically, final concentrations of compound used in the assay ranged from 3000 nM to 0.152 nM.
# Dilute a solution of the Tritiated compound to 1.25 nM in assay buffer. This a 2.5× solution. The final concentration in the assay is 0.5 nM. Calculate the concentration by counting two 5 μL aliquots.
# Use *1 ug or preferrably 0.25 ug of membrane/well. Dilute membranes to 9.7 μg/ml in assay buffer. Treat with 20 ug/ml adenosine deaminase (ADA) for 15 minutes at room temperature to degrade endogenous adenosine.
# Use 25 μg/well wheat germ agglutinin-coated yttrium silicate SPA beads.
# Mix ADA-treated membranes and SPA beads together for 30 min prior to assay.
# To the Perkin-Elmer Optiplate-384 containing the compound titration add 20 μL of 2.5× solution of the Tritiated compound and 30 μL of the membrane-bead mixture. Incubate for one hour at room temperature with agitation.
# Include total binding (assay buffer+1% DMSO) and non-specific binding (CGS15943, 1 μM) wells.
# Allow the beads to settle for one hour.
# A curve fitting program (i.e., Prism, Activity Base, Chemcart) is used to determine the EC50. The Ki value is calculated using the Cheng-Prusoff equation. Ki=EC50/(1+(radioligand concentration/Kd)) Counting and Calculations
# Counting and calculations were performed as described within the “A2A Activity Binding of Compounds of the Invention” section. Using the foregoing methods, the following results were obtained using compounds of the invention described herein. Each example compound tested is reported in the following format: Example number: A2A Ki (nM) selectivity.
# [1] = values marked ^: 1 μg of membrane/well (HEK293 cells expressing the human A2a receptor)
# [2] = 0.25 μg of membranes from HEK293 cells expressing the human A2a receptor per well
# Sequence of human A2A receptor (P29274 whole entry): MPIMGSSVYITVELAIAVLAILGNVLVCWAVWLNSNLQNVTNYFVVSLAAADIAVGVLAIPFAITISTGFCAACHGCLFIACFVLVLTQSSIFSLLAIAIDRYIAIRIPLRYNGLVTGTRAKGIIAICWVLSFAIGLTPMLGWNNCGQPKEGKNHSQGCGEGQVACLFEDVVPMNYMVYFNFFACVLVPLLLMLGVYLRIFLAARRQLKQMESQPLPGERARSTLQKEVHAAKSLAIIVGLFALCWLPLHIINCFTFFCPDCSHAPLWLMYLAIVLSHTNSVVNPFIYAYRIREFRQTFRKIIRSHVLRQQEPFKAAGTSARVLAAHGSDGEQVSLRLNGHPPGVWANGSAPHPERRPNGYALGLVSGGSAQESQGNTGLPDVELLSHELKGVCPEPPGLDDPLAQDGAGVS
Compound,Ki [1] [nM],Ki [2] [nM]
"COc1cccc2c1nc(N)n1nc([C@@H]3CCCN(C(=O)c4cccs4)C3)nc21 [Example 39, 7-methoxy-2-((3R)-1-(thiophen-2-ylcarbonyl)piperidin-3-yl)[1,2,4]triazolo[1,5-c]quinazolin-5-amine]",2.7,
"COc1cccc2c1nc(N)n1nc([C@@H]3CCCN(C(=O)c4ocnc4C)C3)nc21 [Example 40, 7-methoxy-2-((3R)-1-((4-methyl-1,3-oxazol-5-yl)carbonyl)piperidin-3-yl)[1,2,4]triazolo[1,5-c]quinazolin-5-amine]",1.5,
"COc1cccc(C(=O)N2CCC[C@@H](c3nc4c5cccc(OC)c5nc(N)n4n3)C2)c1 [Example 41, 7-methoxy-2-((3R)-1-((3-methoxyphenyl)carbonyl)piperidin-3-yl)[1,2,4]triazolo[1,5-c]quinazolin-5-amine]",1.9,
"COc1cccc2c1nc(N)n1nc([C@@H]3CCCN(C(=O)C(C)(C)F)C3)nc21 [Example 42, (R)-1-(3-(5-amino-7-methoxy-[1,2,4]triazolo[1,5-c]quinazolin-2-yl)piperidin-1-yl)-2-fluoro-2-methylpropan-1-one]",,1.1
"COc1cccc2c1nc(N)n1nc([C@@H]3CCCN(CC(C)(C)F)C3)nc21 [Example 43, (R)-2-(1-(2-fluoro-2-methylpropyl)piperidin-3-yl)-7-methoxy-[1,2,4]triazolo[1,5-c]triazolo[1,5-c]quinazolin-5-amine]",,0.6
"COc1cccc2c1nc(N)n1nc([C@@H]3CCCN(CC4CCOCC4)C3)nc21 [Example 44, (R)-7-methoxy-2-(1-((tetrahydro-2H-pyran-4-yl)methyl)piperidin-3-yl)-[1,2,4]triazolo[1,5-c]quinazolin-5-amine]",,5
"COc1cccc2c1nc(N)n1nc([C@@H]3CCCN(Cc4cccnc4)C3)nc21 [Example 45, 7-methoxy-2-((3R)-1-(pyridin-3-ylmethyl)piperidin-3-yl)[1,2,4]triazolo[1,5-c]quinazolin-5-amine]",3.8,

# The next lines start with the values.
Ki [1] [nM],Ki [2] [nM],Compound
,2,"COc1cccc2c1nc(N)n1nc([C@@H]3CCCN(Cc4cc(F)cc(C(F)(F)F)c4)C3)nc21 [Example 46, 2-((3R)-1-[3-fluoro-5-(trifluoromethyl)benzyl)piperidin-3-yl)-7-methoxy[1,2,4]triazolo [1,5-c]quinazolin-5-amine]"
,9.7,"COc1cccc2c1nc(N)n1nc([C@@H]3CCCN(CC4CCCC4)C3)nc21 [Example 47, 2-((3R)-1-(cyclopentylmethyl)piperidin-3-yl)-7-methoxy[1,2,4]triazolo [1,5-c]quinazolin-5-amine]"
2.1,,"COc1cccc2c1nc(N)n1nc([C@@H]3CCCN(Cc4cnc(C)s4)C3)nc21 [Example 48, 7-methoxy-2-((3R)-1-((2-methyl-1,3-thiazol-5-yl)methyl)piperidin-3-yl)[1,2,4]triazolo[1,5-c]quinazolin-5-amine]"
,5.9,"COc1cccc2c1nc(N)n1nc([C@@H]3CCCN(C4CCC(F)(F)CC4)C3)nc21 [Example 49, 2-((3R)-1-(4,4-difluorocyclohexyl)piperidin-3-yl)-7-methoxy[1,2,4]triazolo [1,5-c]quinazolin-5-amine]"
,1.2,"COc1cccc2c1nc(N)n1nc([C@@H]3CCCN(C4CC4)C3)nc21 [Example 52, (R)-2-(1-cyclopropylpiperidin-3-yl)-7-methoxy-[1,2,4]triazolo[1,5-c]quinazolin-5-amine]"
,2,"COc1cccc2c1nc(N)n1nc([C@@H]3CCN(CC(F)(F)F)C3)nc21 [Example 53, (R)-7-methoxy-2-(1-(2,2,2-trifluoroethyl)pyrrolidin-3-yl)-[1,2,4]triazolo[1,5-c]quinazolin-5-amine]"
,3,"COc1cccc2c1nc(N)n1nc([C@H]3CN(C4CCC(F)(F)CC4)CCO3)nc21 [Example 54, (R)-2-(4-(4,4-difluorocyclohexyl)morpholin-2-yl)-7-methoxy-[1,2,4]triazolo[15-c]quinazolin-5-amine]"
,0.5,"COc1cccc2c1nc(N)n1nc([C@@H]3CC(F)(F)CN3)nc21 [Example 57, (S)-2-(4,4-difluoropyrrolidin-2-yl)-7-methoxy-[1,2,4]triazolo[1,5-c]quinazolin-5-amine]"
